# Entries after “also recorded” stand apart in the source; their conditions may differ. Read-outs that look alike come from different tables or passages of the source.
# Key:
# Format in all cases: physicochemical
# [1] = Solubility of CBZ-sulfonamide 1 in toluene/n-PrOH mixtures by HPLC assay; settings: 0% toluene in n-PrOH
# Experimental: The temperature of both the head and pot rose from 94° C. to 98° C. during the solvent switch. Toluene and n-PrOH form an azeotrope boiling at 97.2° C. composed of 47.5% toluene and 52.5% n-PrOH. The mixture was allowed to cool gradually to 20° C. over 3h and aged for 12 h. […] The solubility of the sulfonamide in various mixtures of toluene and n-PrOH has been determined by HPLC assay: […]
# [2] = Total volatiles / water content (TGA) and water of hydration; settings: for moles of water per mole of compound: appears to be a hygroscopic hydrate
# Source text: (§1) The total volatiles content (as established by TGA analysis) of solid samples of Forms I, II, III and IV upon exposure to various controlled humidities is tabulated below.
# [3] = Solubility of Forms I and II in water, buffer, ethanol/water and isopropanol
# Experimental: The solubility of Form I in distilled water at room temperature is >100 mg/mL. The aqueous solubility (RT) of Form II in buffered solutions (pH 4-9) is >100 mg/mL. The solubility of Form I in ethanol/water mixtures is shown below: […]
# [4] = Thermal stability of neat compound (solid state, HPLC); settings: for thermal stability in words: neat solid; for remaining at 1008 h: 6 Wks; for remaining at 1008 h / remaining at 2856 h: read-out: % Inital; for remaining at 2856 h: 17 Wks; for remaining at 168 h: 1 Wk; for remaining at 336 h: 2 Wks; for remaining at 672 h: 4 Wks; for remaining at 4032 h: 24 Wks; for remaining at 1344 h: 8 Wks
# Experimental: The solid state stability of neat compound was assessed by storage of the drug in glass screw-cap vials in the dark. Samples were assayed by HPLC and the parent compound was quantitatively analyzed. The isocratic method that was employed is outlined below:
# Column: Beckman Ultrasphere ODS (250×4.6 mm, 5 μ)
# Mobile Phase: 0.1% TEA, pH 4.0 with H3 PO4 :Acetonitrile (65:35)
# Detection Wavelength: 228 nm
# Column Temperature: Ambient
# Injection Volume: 20 μL of N-[I(R)-[(1,2-dihydro-1-methanesulfonyl-spiro[3H-indole-3,4'-piperdin]-1'- yl)carbonyl]-2-(phenylmethyl-oxy)ethyl]-2-amino-2-methylpropanamide methanesulfonate (50 μg/mL)
# The results shown below for Forms I and II were calculated as weight percent.
# [5] = Hygroscopicity: storage of solid forms in constant relative humidity chambers; settings: for % Gain/Loss / change of sample on storage at high humidity (footnote): room temperature; for change of sample on storage at high humidity (footnote): Form II 48 hrs at 65-100% RH, Form I 96 hrs at 88 and 100% RH
# Experimental: as §1
# Hygroscopicity was assessed by storing the solid compound in constant relative humidity chambers. […] The results are tabulated below in Tables 1 and 2.
# [6] = Bulk density; settings: compared with other forms
# [7] = solid state, 40 °C, in the dark
# [8] = solid state, 60 °C, in the dark
# [9] = solid state, 80 °C, in the dark
# [10] = 65% RH, 48 hrs, footnote a = sample becomes a gummy semisolid
# [11] = 76% RH, 48 hrs, footnote a = sample becomes a gummy semisolid
# [12] = 100% RH, 48 hrs, footnotes a = gummy semisolid, b = converts to Form IV upon exposure to ambient humidity
# [13] = solid state, 40 °C, in the dark, read-out: % Initial
# [14] = solid state, 60 °C, in the dark, read-out: % Initial
# [15] = solid state, 80 °C, in the dark, read-out: % Initial
Compound,water content (total volatiles by TGA) [2],solubility in isopropanol [3],thermal stability in words [4],hygroscopicity in words [5],"% Gain/Loss ([5]; 0% RH, 48 hrs)","% Gain/Loss ([5]; 11% RH, 48 hrs)","% Gain/Loss ([5]; 47% RH, 48 hrs)","% Gain/Loss [5, 10]","% Gain/Loss [5, 11]","% Gain/Loss [5, 12]",change of sample on storage at high humidity (footnote) [5],"% Gain/Loss ([5]; 33% RH, 48 hrs)",moles of water per mole of compound [2],also measured
"CS(=O)(=O)N1CC2(CCN(C(=O)OCc3ccccc3)CC2)c2ccccc21 [Form 1, CBZ-Spiroindoline-methanesulfonamide]",,,,,,,,,,,,,,solubility of 1 [1]: 2.36 mg/mL
"CC(C)(N)C(=O)N[C@H](COCc1ccccc1)C(=O)N1CCC2(CC1)CN(S(C)(=O)=O)c1ccccc12 [Form I, N-[1(R)-[(1,2-dihydro-1-methanesulfonylspiro[3H-indole-3,4'-piperdin]-1'-yl)carbonyl]-2-(phenylmethyloxy)ethyl]-2-amino-2-methylpropanamide methanesulfonate]",0.79 wt %,4.6 mg/niL,good thermal stability,non-hygroscopic; also recorded: the wet crystals are very hygroscopic; also recorded: No substantial moisture increase is exhibited by Form I except when stored above 76% RH,-0.02%,-0.05%,+0.21%,+0.37%,+0.12%,> 12.0%,deliquescent material,,,"water content in words [2]: relatively anhydrous; solubility ([3]; distilled water, water, room temperature, read-out: solubility in distilled water): > 100 mg/mL; solubility ([3]; ethanol/water 25/75, organic solvent or mixture, % Ethanol/H2O 25/75, read-out: Solubility in ethanol/water): > 100 mg/mL; solubility ([3]; ethanol/water 50/50, organic solvent or mixture, % Ethanol/H2O 50/50, read-out: Solubility in ethanol/water): > 100 mg/mL; solubility ([3]; ethanol/water 75/25, organic solvent or mixture, % Ethanol/H2O 75/25, read-out: Solubility in ethanol/water): > 90 mg/mL; solubility ([3]; organic solvent or mixture, 100% ethanol, read-out: Solubility in ethanol): > 90 mg/mL; remaining at 1008 h [4, 7]: 100%; remaining at 2856 h [4, 7]: 98.7%; remaining at 1008 h [4, 8]: 101%; remaining at 2856 h [4, 8]: 101%; remaining at 1008 h [4, 9]: 101%; remaining at 2856 h [4, 9]: 99.4%; % Gain/Loss ([5]; 7% RH, 96 hrs): +0.4%; % Gain/Loss ([5]; 22% RH, 96 hrs): +0.3%; % Gain/Loss ([5]; 47% RH, 96 hrs): +0.5%; % Gain/Loss ([5]; 68% RH, 96 hrs): +0.6%; % Gain/Loss ([5]; 88% RH, 96 hrs, * = deliquescent material): +12.9%; % Gain/Loss ([5]; 100% RH, 96 hrs, * = deliquescent material): +23.9%"
"CC(C)(N)C(=O)N[C@H](COCc1ccccc1)C(=O)N1CCC2(CC1)CN(S(C)(=O)=O)c1ccccc12 [Form II, N-[1(R)-[(1,2-dihydro-1-methanesulfonylspiro[3H-indole-3,4'-piperdin]-1'-yl)carbonyl]-2-(phenylmethyloxy)ethyl]-2-amino-2-methylpropanamide methanesulfonate]",0.56 wt %,12.3 mg/mL,good thermal stability,hygroscopic and exhibits a large increase in moisture starting at 65% RH,+0.08%,+0.02%,+0.39%,> 10.0%,> 10.0%,> 10.0%,Sample becomes a gummy semisolid; also recorded: Converts to Form IV upon exposure to ambient humidity,+0.33%,,"solubility ([3]; buffer ph 4-9, RT, pH 4-9, read-out: aqueous solubility in buffered solutions): > 100 mg/mL; solubility in IPA ([3]; crystalline material from EtOAc-EtOH): 12 mg/mL; % Initial ([4]; 80 °C, 12 Wks, in the dark, 120960 min): 100.4%; remaining at 168 h [4, 13]: 99.7%; remaining at 336 h [4, 13]: 101%; remaining at 672 h [4, 13]: 99.5%; remaining at 4032 h [4, 13]: 100%; remaining at 168 h [4, 14]: 99.4%; remaining at 336 h [4, 14]: 99.6%; remaining at 672 h [4, 14]: 100%; remaining at 1344 h [4, 14]: 100%; remaining at 2016 h ([4]; solid state, 60 °C, 12 Wks, in the dark, read-out: % Initial): 101%; remaining at 4032 h [4, 14]: 101%; remaining at 168 h [4, 15]: 99.2%; remaining at 336 h [4, 15]: 100%; remaining at 672 h [4, 15]: 99.2%; remaining at 1344 h [4, 15]: 99.8%"
"CC(C)(N)C(=O)N[C@H](COCc1ccccc1)C(=O)N1CCC2(CC1)CN(S(C)(=O)=O)c1ccccc12 [Form III, N-[1(R)-[(1,2-dihydro-1-methanesulfonylspiro[3H-indole-3,4'-piperdin]-1'-yl)carbonyl]-2-(phenylmethyloxy)ethyl]-2-amino-2-methylpropanamide methanesulfonate]",4.5-5.0 wt %,,,shows an increase in moisture after 48-hr storage at 33% RH,,-0.15%,+3.99%,,+3.76%,,,+2.23%,,
"CC(C)(N)C(=O)N[C@H](COCc1ccccc1)C(=O)N1CCC2(CC1)CN(S(C)(=O)=O)c1ccccc12 [Form IV, N-[1(R)-[(1,2-dihydro-1-methanesulfonylspiro[3H-indole-3,4'-piperdin]-1'-yl)carbonyl]-2-(phenylmethyloxy)ethyl]-2-amino-2-methylpropanamide methanesulfonate]",9.5-10.0 wt %,,,,-7.8%,-4.9%,+0.7%,,+1.5%,+5.3%,,+0.3%,3.5 moles of water per mole,"bulk density [6]: higher bulk density than other forms; % Gain/Loss ([5]; 66% RH, 48 hrs): +1.4%"
"CC(C)(N)C(=O)N[C@H](COCc1ccccc1)C(=O)N1CCC2(CC1)CN(S(C)(=O)=O)c1ccccc12 [Form V, N-[1(R)-[(1,2-dihydro-1-methanesulfonylspiro[3H-indole-3,4'-piperdin]-1'-yl)carbonyl]-2-(phenylmethyloxy)ethyl]-2-amino-2-methylpropanamide methanesulfonate]",,,,hygroscopic,,,,,,,,,1 moles of water per mole,

# Source: patent US5767124A, “Polymorphic forms of a growth hormone secretagogue” (priority 1996, dated 1998)
